Values of other authors in patent US20100087475A1, “PHARMACEUTICAL COMPOUNDS” (Biovali Laboratories International (Barbados) S.R.L., priority 2008, published 2010).

Molecular target: VMAT2 (Homo sapiens, UniProt Q05940)
Details: Erickson et al. (1996); cited from earlier work

Chain of VMAT2 (Q05940 whole entry): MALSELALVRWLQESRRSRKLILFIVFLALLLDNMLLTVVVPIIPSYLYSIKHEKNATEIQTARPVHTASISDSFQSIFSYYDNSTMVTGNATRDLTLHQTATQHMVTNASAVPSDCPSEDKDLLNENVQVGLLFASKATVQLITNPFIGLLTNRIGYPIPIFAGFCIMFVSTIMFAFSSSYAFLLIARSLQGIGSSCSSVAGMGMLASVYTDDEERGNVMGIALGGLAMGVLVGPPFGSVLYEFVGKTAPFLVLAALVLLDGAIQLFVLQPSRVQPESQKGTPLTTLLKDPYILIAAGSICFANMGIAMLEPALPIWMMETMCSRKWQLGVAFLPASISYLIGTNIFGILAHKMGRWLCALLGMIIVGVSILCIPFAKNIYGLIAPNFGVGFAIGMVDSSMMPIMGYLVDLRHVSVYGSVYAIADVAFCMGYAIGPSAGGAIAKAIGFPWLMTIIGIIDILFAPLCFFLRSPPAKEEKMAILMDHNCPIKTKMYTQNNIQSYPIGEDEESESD

SMILES: COc1cc2c(cc1OC)C1CC(=O)C(CC(C)C)CN1CC2 (stereo not shown) [tetrabenazine, 1,3,4,6,7,11b-hexahydro-9,10-dimethoxy-3-(2-methylpropyl)-2H-benzo(a)quinolizin-2-one]
- affinity for VMAT2 in comparison to VMAT1: ≥ 200 fold
